Source: patent US12214058B2, “Imaging methods using deuterated compounds” (Genentech, Inc., priority 2014, dated 2025)
Values joined by “and” are separate entries in the source; they are usually repeats but may differ in a detail not shown here. Identical values can stand only once.

Tests used:
tau = assay: Human PET imaging with [18F][A]-d2 (SUVR); assay type: in vivo; details: for SUVR Frontal lobe / SUVR Occipital lobe / SUVR Parietal lobe / SUVR Temporal lobe / SUVR White matter: cerebellum gray as reference
Text: A total of 5 subjects, 3 Alzheimer's disease (AD) patients and 2 healthy volunteers (HV) was used in this study. This study protocol required each subject to complete the following components: screening evaluation, MRI, [^18F]florbetapir (AD subjects only) and [^18F][A]-d2. The screening procedures included neuropsychological assessment, vital signs, ECG, physical exam, MRI, and [^18F]florbetapir PET imaging to confirm presence of amyloid deposition in patients clinically diagnosed with probable AD. In addition, each subject completed clinical assessments and clinical safety labs to ensure the subject was medically stable to complete the study protocol. The screening procedures occurred within 30 days prior to [^18F][A]-d2 imaging. Eligible subjects participated in a single [^18F][A]-d2 imaging session. The distribution of tau binding was assessed in each of the subject groups (AD and HV) to evaluate for binding to tau. For each AD subject, the distribution of Aβ and tau was compared. Tau binding in brain was assessed with PET using [^18F][A]-d2. Radioligand binding was compared in brains of HV subjects who should have minimal to negligible concentrations of tau compared to patients with AD, who are expected to have moderate to high densities of tau.
All subjects received a single injection of [^18F][A]-d2. Subjects received a bolus intravenous injection of no more than 370 MBq (˜10 mCi).
Images were acquired using a HR+ PET camera in three-dimensional mode and were reconstructed using an iterative algorithm including scatter and measured attenuation correction (^68Ge source). Dynamic images were acquired upon injection (˜370 MBq). The scanning protocol consisted of 2 scanning segments in the two healthy control (HC) subjects, Subjects 1 & 2 (0-120 min and ˜150-180 min) and of 3 segments in the suspected AD patient, Subject 3 (0-60 min, 93-123 min and 147-177 min).
The MR volumetric image, a summed image of the first 15 min after tracer administration of [^18F][A]-d2 were coregistered using Statistical Parametic Mapping SPM8 (software provided by members and collaborators of the Wellcome Trust Centre for Neuroimaging). Alignment of the additional PET segments to the first PET segment was performed using in-house developed analysis software written in Matlab® (version 8 Release 2014a). Then, using the MRI scan for anatomical delineation, irregular regions of interest (ROI) were drawn for each subject in the frontal, parietal, occipital, and temporal lobes, cerebellum gray, and white-matter (centrum semi-ovale) using MIM® software.
[^18F][A]-d2 tissue time activity curves (TAC) were expressed in SUV (Standardized Uptake Value) using each subject's weight and the corresponding tracer injected dose: TAC(SUV)=TAC(Bq/cm^3)×1000 cm^3/kg×Subject's weight(kg)/Injected dose(Bq). TAC creation and all subsequent analyses were performed using in-house developed analysis software written in Matlab®.
The ratio to cerebellum gray or standardized uptake value ratio (SUVR) was calculated. […] A clear separation of the curves is observed as early as 30 min post injection. The SUVR curves in the two healthy controls remained relatively constant soon after injection. The SUVR in the AD subject reached a plateau in the 90-120 min interval.

[1] = Microsomal stability assay, human liver microsomes; assay type: in vitro ADME; details: radiolabeled, 45 min incubation, n=3
Experimental: Microsomal stability assays The tracer [^18F][A]-d2 or [^18F][A] was dissolved in potassium phosphate (Kpi) buffer (100 mM) at concentration 500-600 μCi/mL. The non-radioactive 7 and 10 were dissolved in Kpi buffer at 10 μM concentration. The reaction vessel was charged with human or mouse liver microsome suspension (12.5 μL, 20 mg/mL) followed by Kpi buffer (388 μL, 10 mM), NADPH (50 μL, 10 mM) and incubated at 37° C. for 5-10 min. A solution of the radioactive [^18F][A]-d2 or [^18F][A] (50 μL, […]) or non-radioactive 7 or […] (50 μL, 10 μM) were added to the reaction vessel and the mixture was incubated at 37° C. […] The supernatant was analyzed by LCMS (System E).

[2] = Dynamic PET in anesthetized rhesus; assay type: in vivo; details: 370 MBq i.v. bolus, PET over 240 min, versus [18F][A] and 18F T807
Experimental: [^18F][A]-d2, [^18F][A] or ^18F T807 (see Chien et al., J. Alzheimers Dis, 38:171-84 (2014)) (370 MBq (10 mCi)) was intravenous bolus injected into an anesthetized rhesus, and dynamic PET data acquired over 240 minutes. […] Data was collected from the same animal but on different days for each probe.

[3] = 40-60 min interval, Subject 1 (HC)
[4] = 40-60 min interval, Subject 2 (HC)
[5] = 40-60 min interval, Subject 3 (AD)
[6] = 90-120 min interval, Subject 1 (HC)
[7] = 90-120 min interval, Subject 2 (HC)
[8] = 90-120 min interval, Subject 3 (AD)

radioactivity uptake in bone tissue (tau; Subjects 1-3, human PET images): no radioactivity uptake in bone tissue | fraction attributed to parent compound [1]: 91.7±0.21% and 67.1±6.3%
SMILES: [2H]C([2H])([18F])CC1CCN(c2ccn3c(n2)nc2ccccc23)CC1 [[^18F][A]-d2, 1,1-dideutero-2-(1-(benzo[4,5]imidazo[1,2-a]pyrimidine-2-yl)piperidin-4-yl)-1-[^18F]fluoroethane]
SUVR Frontal lobe (tau; [3]): 1.08 | SUVR Occipital lobe (tau; [3]): 1.15 | SUVR Parietal lobe (tau; [3]): 1.09 | SUVR Temporal lobe (tau; [3]): 1.14 | SUVR White matter (tau; [3]): 0.85 | SUVR Frontal lobe (tau; [4]): 1.12 | SUVR Occipital lobe (tau; [4]): 1.19 | SUVR Parietal lobe (tau; [4]): 1.13 | SUVR Temporal lobe (tau; [4]): 1.18 | SUVR White matter (tau; [4]): 0.80 | SUVR Frontal lobe (tau; [5]): 1.16 | SUVR Occipital lobe (tau; [5]): 1.60 | SUVR Parietal lobe (tau; [5]): 1.35 | SUVR Temporal lobe (tau; [5]): 1.82 | SUVR White matter (tau; [5]): 0.88 | SUVR Frontal lobe (tau; [6]): 1.07 | SUVR Occipital lobe (tau; [6]): 1.19 | SUVR Parietal lobe (tau; [6]): 1.07 | SUVR Temporal lobe (tau; [6]): 1.13 | SUVR White matter (tau; [6]): 0.76 | SUVR Frontal lobe (tau; [7]): 1.17 | SUVR Occipital lobe (tau; [7]): 1.21 | SUVR Parietal lobe (tau; [7]): 1.07 | SUVR Temporal lobe (tau; [7]): 1.18 | SUVR White matter (tau; [7]): 0.66 | SUVR Frontal lobe (tau; [8]): 1.25 | SUVR Occipital lobe (tau; [8]): 1.87 | SUVR Parietal lobe (tau; [8]): 1.52 | SUVR Temporal lobe (tau; [8]): 2.25 | SUVR White matter (tau; [8]): 0.81 | stability / skull uptake of free fluoride [2]: increased stability reflected by a reduction of skull uptake of free fluoride
